Experimental data from paper PMC6204527, “The Human Gut Colonizer Blastocystis Respires Using Complex II and Alternative Oxidase to Buffer Transient Oxygen Fluctuations in the Gut” (Frontiers in Cellular and Infection Microbiology, 2018).

Tests used:
[1] = molecular target: T1, Blastocystis alternative oxidase (AOX) (Blastocystis hominis, UniProt D3GDI7); test: O2 uptake, Clark electrode, E. coli FN102 membranes; assay type: biochemical; conditions: 1 mM duroquinol; O2 co-substrate (250 μM); 50 mM Tris-HCl pH 7.5; 25 °C
T1 construct: full-length 304 aa (predicted 35 kDa), N-terminal 6xHis from pET-14b, expressed in heme-deficient E. coli FN102; E. coli membranes or whole cells
T1 sequence (D3GDI7 1-304): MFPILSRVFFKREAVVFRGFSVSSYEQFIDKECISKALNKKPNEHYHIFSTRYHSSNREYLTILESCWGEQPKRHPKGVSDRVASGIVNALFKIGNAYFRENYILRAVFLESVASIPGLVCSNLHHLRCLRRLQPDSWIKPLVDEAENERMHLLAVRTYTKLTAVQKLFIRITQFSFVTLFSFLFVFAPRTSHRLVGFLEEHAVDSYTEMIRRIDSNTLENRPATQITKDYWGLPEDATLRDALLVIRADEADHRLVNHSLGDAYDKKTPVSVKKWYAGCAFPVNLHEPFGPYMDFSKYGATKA

[2] = molecular target: T1, Blastocystis alternative oxidase (AOX); test: as above; assay type: biochemical; conditions: 1 mM duroquinol; 50 mM Tris-HCl pH 7.5; 25 °C; antimycin A 1 μM also added

Q: `Cc1c(C)c(O)c(C)c(C)c1O` [DQH2, duroquinol] was tested. Which “O2 uptake, Clark electrode, E. coli FN102 membranes” value [1] did it give?
A: The value was “Addition of duroquinol (Sigma), an AOX substrate, initiates oxygen consumption”.

Q: How did the “inhibition at 25 μM” value [2] turn out when `CCCCCCCCOC(=O)c1cc(O)c(O)c(O)c1` [OG, octylgallate] was run?
A: The value was “Oxygen consumption is almost completely abated by the addition of octylgallate, an AOX inhibitor”.
